# Test results published in paper PMC7024211, “Antifouling Napyradiomycins from Marine-Derived Actinomycetes Streptomyces aculeolatus” (Marine Drugs, 2020).
# Assays:
# P. batsensis = assay: Biofilm inhibition assay (crystal violet); type: cell-based, Pseudooceanicola batsensis; settings: Pseudooceanicola batsensis
# Protocol: (§1) In a 96-well plate, biofilm grown cultures of M. hydrocarbonoclasticus and C. marina were incubated with napyradiomycins (1–12) at a concentration of 31.25 µg/mL. After discarding the media, biofilm inhibition was determined from OD600 measurements of crystal violet stained cells resuspended from the plate bottom with acetic acid.
# (§2) Five marine bacterial species were used as models to assess antimicrofouling activity. The biofilm-forming marine bacteria Marinobacter hydrocarbonoclasticus DSM 8798 (ATCC 49840), Cobetia marina DSM 4741, Phaeobacter inhibens DSM 17,395, and Pseusooceanicola batsensis DSM 15,984 were obtained from DSMZ (Leibniz Institute DSMZ—German collection of Microorganisms and Cell Cultures) and Micrococcus luteus. Cultures were routinely grown in liquid marine broth (Carl Roth GmbH, Karlsruhe, Germany) with agitation (180 rpm) or on agar-supplemented marine broth, at 28 °C (M. hydrocarbonoclasticus and C. marina) or 30 °C (P. inhibens and P. batsensis). M. luteus was maintained in Brain Heart Infusion broth (BHI, Becton Dickinson, GmbH, Heidelberg, Germany) with agitation (180 rpm) or on agar-supplemented BHI, at 37 °C.
# (§3) The antibiofilm activity of napyradiomycins (1–12) against the five marine bacterial species was assessed in 96-well polystyrene flat bottom microplates (Nunclon Delta Surface, Thermo Scientific, Roskilde, Denmark) as previously reported. For initial screening, bacterial overnight cultures were diluted to an optical density (OD600nm) value of 0.2 and incubated statically at 28 °C (M. hydrocarbonoclasticus, C. marina), 30 °C (P. inhibens, P. batsensis) or 37 °C (M. luteus) in the 96-well microplate in the presence or absence of 31.25 µg/mL of napyradiomycins, solubilized in DMSO. After 24 h (M. hydrocarbonoclasticus, C. marina) or 48 h (P. batsensis, P. inhibens, M. luteus) incubation, the OD600nm was determined. The planktonic cells and media were discarded, and the wells were washed twice with deionized water. The biofilm was fixed for 1 h at 60 °C and stained with crystal violet 0.06% for 10 min. The dye was discarded, and the wells were again washed twice with deionized water. The stained biofilm was solubilized with 30% acetic acid and the OD600nm was determined. […] The percentage of biofilm inhibition was calculated as the amount of biofilm relative to that of the bacterial species without added compounds (with the same amount of DMSO added). CuSO4 (5 μM), a potent antifouling agent used in antifouling paints, was used as reference.
# (§4) All assays were performed in triplicate, and results are representative of the average and standard error of the mean (SEM). Statistical analysis was performed in GraphPad Prism 8.0.2, using one-way ANOVA followed by a Dunnett’s multiple comparisons test against the control (species grown with the same amount of DMSO added).
# [1] = Mussel plantigrade larvae settlement, 15 h acute exposure assay; type: in vivo; settings: Mytilus galloprovincialis (mussel, plantigrade larvae), in vivo, no mortality at highest tested concentration 12 µg/mL
# Protocol: (§5) Mussel (M. galloprovincialis) adhesive larvae (plantigrades) were used to assess in vivo the antifouling activity of napyradiomycins (1–12) towards macrofouling. Juvenile mussel aggregates were collected at the intertidal rocky shore during low spring tides, at Memória beach, Matosinhos, Portugal (41°13′59″ N; 8°43′28″ W). At the laboratory, immediately before the bioassays, mussel plantigrade larvae were screened and isolated from the juvenile aggregates using a binocular microscope (Olympus SZX2-ILLT, Hamburg, Germany) and washed with filtered seawater to remove organic debris. Only competent plantigrade larvae (those showing foot exploratory behavior) were selected and used in the exposure bioassays following previously validated procedures. Plantigrades were exposed in 24-well polystyrene plates for 15 h in the darkness at 18 °C. DMSO was used as solvent for crude extracts, fractions and pure compounds stock and working solutions. Working solutions were prepared by successive dilutions of stock solutions in DMSO and then diluted in filtered seawater to obtain the test solutions. DMSO concentration in test solutions was always 0.1%. Four well replicates were used per condition with five larvae per well. Two negative controls, one with ultra-pure water and the other with DMSO 0.1% were included in all bioassays, as well as a positive control with 5 μM CuSO4 (a potent antifouling agent). Anti-settlement bioactivity was determined by the presence/absence of fixed byssal threads produced by each individual larvae for all the conditions tested. […] Chi-square Pearsons goodness-of-fit test was applied to data in order to determine EC50. Significance was considered at p < 0.01 for all analyses, and 95% lower and upper confidence limits [95% LCL; UCL] were presented. Therapeutic ratio (LC50/EC50) was used to evaluate the effectiveness vs. toxicity of compounds [19, 21].
# [2] = test system: M. galloprovincialis plantigrade larvae; assay: as above; type: in vivo; settings: 95% LCL, UCL in brackets
# Protocol: as §5
# M. luteus [3] = assay: Bacterial growth inhibition assay (OD600nm); type: cell-based, Micrococcus luteus
# From the text: as §2
# The antibacterial activity of the napyradiomycins (1–12) was assessed in 96-well polystyrene flat bottom microplates (Nunclon Delta Surface, Thermo Scientific, Roskilde, Denmark) following previously reported procedures. […] After 24 h (M. hydrocarbonoclasticus, C. marina) or 48 h (P. batsensis, P. inhibens, M. luteus) incubation, the OD600nm was determined (Molecular Devices, Spectra Max 190). […] The percentage of growth inhibition was calculated as the amount of growth relative to that of the bacterial species without added compounds (with the same amount of DMSO added). CuSO4 (5 μM), a potent antifouling agent used in antifouling paints, was used as reference.
# as §4, with “8.0.2 (San Diego, CA, USA),” for “8.0.2,”
# M. hydrocarbonoclasticus = assay: Biofilm inhibition assay (crystal violet); type: cell-based, Marinobacter hydrocarbonoclasticus; settings: 31.25 µg/mL
# Protocol: as §1, §2, §3, §4
# M. luteus [4] = assay: Biofilm inhibition assay (crystal violet); type: cell-based, Micrococcus luteus
# Protocol: as §1, §2, §3, §4
smiles,measurement,setting,value
"CC(C)=CCCC(C)=CCC12OC(C)(C)C(Cl)CC1(Cl)C(=O)c1c(O)cc(O)cc1C2=O (stereo not drawn) [Napyradiomycin 1, napyradiomycin A1]",inhibition at 0.98 µg/mL,"P. batsensis; 0.98 µg/mL, read-out: % inhibition of biofilm formation P. batsensis",4.3 ± 4.3%
same,inhibition at 1.95 µg/mL,"P. batsensis; 1.95 µg/mL, read-out: % inhibition of biofilm formation P. batsensis",17.7 ± 0.8%
same,inhibition at 3.91 µg/mL,"P. batsensis; 3.91 µg/mL, read-out: % inhibition of biofilm formation P. batsensis",38.1 ± 0.6%
same,inhibition at 7.81 µg/mL,"P. batsensis; 7.81 µg/mL, read-out: % inhibition of biofilm formation P. batsensis",28.4 ± 2.8%
same,inhibition at 15.6 µg/mL,"P. batsensis; 15.6 µg/mL, read-out: % inhibition of biofilm formation P. batsensis",86.9 ± 1%
same,inhibition at 31.25 µg/mL,"P. batsensis; 31.25 µg/mL, read-out: % Biofilm Inhibition ± SEM P. batsensis",87.2 ± 0.1%
same,LC50 at 15 h,[1],> 12 µg/mL
same,EC50 [Conf. limits] larval settlement,[2],0.655 [0.300; 0.906] µg/mL
same,EC50,"[2]; Mytilus galloprovincialis, 15 h, read-out: EC50 [Conf. limits] larval settlement",0.66 µg/mL
same,% growth inhibition M. luteus,M. luteus [3]; 3.91 µg/mL,93.6 ± 1.1%
same,inhibition at 0.98 µg/mL,"M. luteus [3]; Micrococcus luteus, 0.98 µg/mL",42.9 ± 0.4%
same,inhibition at 1.95 µg/mL,"M. luteus [3]; Micrococcus luteus, 1.95 µg/mL",69.8 ± 0.5%
same,inhibition at 3.91 µg/mL,"M. luteus [3]; Micrococcus luteus, 3.91 µg/mL",> 90%
same,inhibition at 7.81 µg/mL,"M. luteus [3]; Micrococcus luteus, 7.81 µg/mL",96 ± 0.3%
same,inhibition at 15.6 µg/mL,"M. luteus [3]; Micrococcus luteus, 15.60 µg/mL",96.5 ± 0.2%
same,inhibition at 31.25 µg/mL,"M. luteus [3]; Micrococcus luteus, 31.25 µg/mL",96.1 ± 0.5%
same,% Biofilm Inhibition ± SEM M. hydrocarbonoclasticus,M. hydrocarbonoclasticus,N.I.
same,inhibition at 0.98 µg/mL,"M. luteus [4]; Micrococcus luteus, 0.98 µg/mL, read-out: % inhibition of biofilm formation M. luteus",59 ± 7.4%
same,inhibition at 1.95 µg/mL,"M. luteus [4]; Micrococcus luteus, 1.95 µg/mL, read-out: % inhibition of biofilm formation M. luteus",90.3 ± 3.8%
same,inhibition at 3.91 µg/mL,"M. luteus [4]; Micrococcus luteus, 3.91 µg/mL, read-out: % inhibition of biofilm formation M. luteus",95.8 ± 2.9%
same,inhibition at 7.81 µg/mL,"M. luteus [4]; Micrococcus luteus, 7.81 µg/mL, read-out: % inhibition of biofilm formation M. luteus",96.7 ± 0.5%
same,inhibition at 15.6 µg/mL,"M. luteus [4]; Micrococcus luteus, 15.6 µg/mL, read-out: % inhibition of biofilm formation M. luteus",95.4 ± 0.9%
same,inhibition at 31.25 µg/mL,"M. luteus [4]; Micrococcus luteus, 31.25 µg/mL, read-out: % Biofilm Inhibition ± SEM M. luteus",88.6 ± 2.9%
same,% inhibition of biofilm formation M. luteus,M. luteus [4]; concentrations higher than 1.95 µg/mL,> 90%
